ChEMBL document CHEMBL3864127, “Janadolide, a Cyclic Polyketide-Peptide Hybrid Possessing a tert-Butyl Group from an Okeania sp. Marine Cyanobacterium” (J Nat Prod, 2016)

Legend:
[1] = tested on: Trypanosoma brucei brucei; assay: Antitrypanosomal activity against bloodstream form of Trypanosoma brucei brucei GUTat 3.1 after 72 hrs by Alamar blue assay; format: functional; settings: GUTat 3.1, 72 h
[2] = Cytotoxicity against human HeLa cells assessed as cell growth inhibition at 10 uM after 72 hrs by MTT assay; format: toxicity, cell-based
[3] = Cytotoxicity against human HL60 cells assessed as cell growth inhibition at 10 uM after 72 hrs by MTT assay; format: toxicity, cell-based; settings: hl-60, 72 h
[4] = Cytotoxicity against human MRC5 cells assessed as cell growth inhibition at 10 uM after 7 days by MTT assay; format: toxicity, cell-based; settings: mrc5, 168 h

IC50 [1] [nM] | Compound | Activity [2] | Activity [3] | Activity [4]
47 | C/C1=C\[C@@H](C(C)(C)C)OC(=O)[C@H](CC(C)C)N(C)C(=O)[C@H](C)N(C)C(=O)CNC(=O)[C@H](C(C)C)NC(=O)[C@@H]2CCCN2C(=O)[C@H](C)CC1 | Non-Toxic | Non-Toxic | Non-Toxic
1200 | Cc1ccc(C(=O)Nc2ccc(S(=O)(=O)O)c3cc(S(=O)(=O)O)cc(S(=O)(=O)O)c23)cc1NC(=O)c1cccc(NC(=O)Nc2cccc(C(=O)Nc3cc(C(=O)Nc4ccc(S(=O)(=O)O)c5cc(S(=O)(=O)O)cc(S(=O)(=O)O)c45)ccc3C)c2)c1 [SURAMIN] |  |  | 
